Experimental data reported in patent US20200239530A1, “COMPOUNDS AND METHODS OF MODULATING PROTEIN DEGRADATION” (Vividion Therapeutics, Inc., priority 2017, published 2020).
Blank lines part the entries; values can stand above or below the compound they belong to.

Experiments:
Assay in all cases: Cysteine liganding, probe competition
Assay type in all cases: binding
UniProt P49792 = target: T1, UniProt P49792 (Homo sapiens, UniProt P49792); conditions: 500 uM
T1 construct: 200 μL of lysate containing 5 mg/ml proteome was treated with 2 μL of 100× compound stock; endogenous in cells
Excerpt: (§1) The following 96-well sample prep protocol was used for sample preparation.

UniProt Q9HCI7 = target: T2, UniProt Q9HCI7 (Homo sapiens, UniProt Q9HCI7); conditions: for percent inhibition: 100 uM
T2 construct: Cells were resuspended in cold PBS on ice and sonicated with a probe sonicator to achieve lysis; endogenous in cells
T2 sequence (Q9HCI7 1-577): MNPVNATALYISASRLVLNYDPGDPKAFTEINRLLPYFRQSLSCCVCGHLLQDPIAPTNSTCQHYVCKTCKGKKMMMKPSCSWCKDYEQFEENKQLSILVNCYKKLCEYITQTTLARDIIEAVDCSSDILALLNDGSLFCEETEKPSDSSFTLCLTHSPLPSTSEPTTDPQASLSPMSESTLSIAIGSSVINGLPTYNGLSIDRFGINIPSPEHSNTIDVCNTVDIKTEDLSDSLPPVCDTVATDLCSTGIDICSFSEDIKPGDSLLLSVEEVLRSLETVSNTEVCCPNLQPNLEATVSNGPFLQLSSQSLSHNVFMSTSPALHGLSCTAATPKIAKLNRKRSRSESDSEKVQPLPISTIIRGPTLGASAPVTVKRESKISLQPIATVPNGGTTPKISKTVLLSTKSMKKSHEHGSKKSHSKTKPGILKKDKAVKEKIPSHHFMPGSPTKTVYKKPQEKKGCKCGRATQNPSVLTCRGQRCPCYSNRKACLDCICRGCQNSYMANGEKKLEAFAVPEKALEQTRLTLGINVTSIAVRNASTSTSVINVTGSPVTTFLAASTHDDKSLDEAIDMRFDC
Excerpt: as §1

UniProt Q9HCE7 = target: T3, UniProt Q9HCE7 (Homo sapiens, UniProt Q9HCE7)
T3 construct: 200 μL of lysate containing 5 mg/ml proteome was treated with 2 μL of 100× compound stock; endogenous in cells
T3 sequence (Q9HCE7 whole entry, change not shown): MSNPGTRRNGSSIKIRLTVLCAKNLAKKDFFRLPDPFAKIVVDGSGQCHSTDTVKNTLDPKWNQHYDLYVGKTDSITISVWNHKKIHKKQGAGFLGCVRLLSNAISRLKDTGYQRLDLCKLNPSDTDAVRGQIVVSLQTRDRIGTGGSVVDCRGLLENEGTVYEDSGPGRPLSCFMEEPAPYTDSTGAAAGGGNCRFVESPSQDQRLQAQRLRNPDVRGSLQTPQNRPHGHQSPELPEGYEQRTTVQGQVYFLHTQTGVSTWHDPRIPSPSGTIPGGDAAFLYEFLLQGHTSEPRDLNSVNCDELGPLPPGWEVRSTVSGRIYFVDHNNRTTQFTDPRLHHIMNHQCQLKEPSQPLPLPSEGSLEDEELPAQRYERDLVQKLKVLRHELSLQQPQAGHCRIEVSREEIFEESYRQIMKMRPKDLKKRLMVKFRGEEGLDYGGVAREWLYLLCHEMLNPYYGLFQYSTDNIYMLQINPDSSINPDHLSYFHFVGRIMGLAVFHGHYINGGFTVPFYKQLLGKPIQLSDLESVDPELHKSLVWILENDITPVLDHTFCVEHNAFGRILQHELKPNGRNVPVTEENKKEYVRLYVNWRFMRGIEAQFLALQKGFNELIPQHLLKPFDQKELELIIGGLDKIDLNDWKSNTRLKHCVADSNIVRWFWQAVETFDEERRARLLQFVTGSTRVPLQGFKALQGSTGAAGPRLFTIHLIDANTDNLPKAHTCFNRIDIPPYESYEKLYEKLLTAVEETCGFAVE
Excerpt: as §1

UniProt Q9HBE1 = target: T4, UniProt Q9HBE1 (Homo sapiens, UniProt Q9HBE1)
T4 construct: Cells were resuspended in cold PBS on ice and sonicated with a probe sonicator to achieve lysis; endogenous in cells
T4 sequence (Q9HBE1 whole entry, change not shown): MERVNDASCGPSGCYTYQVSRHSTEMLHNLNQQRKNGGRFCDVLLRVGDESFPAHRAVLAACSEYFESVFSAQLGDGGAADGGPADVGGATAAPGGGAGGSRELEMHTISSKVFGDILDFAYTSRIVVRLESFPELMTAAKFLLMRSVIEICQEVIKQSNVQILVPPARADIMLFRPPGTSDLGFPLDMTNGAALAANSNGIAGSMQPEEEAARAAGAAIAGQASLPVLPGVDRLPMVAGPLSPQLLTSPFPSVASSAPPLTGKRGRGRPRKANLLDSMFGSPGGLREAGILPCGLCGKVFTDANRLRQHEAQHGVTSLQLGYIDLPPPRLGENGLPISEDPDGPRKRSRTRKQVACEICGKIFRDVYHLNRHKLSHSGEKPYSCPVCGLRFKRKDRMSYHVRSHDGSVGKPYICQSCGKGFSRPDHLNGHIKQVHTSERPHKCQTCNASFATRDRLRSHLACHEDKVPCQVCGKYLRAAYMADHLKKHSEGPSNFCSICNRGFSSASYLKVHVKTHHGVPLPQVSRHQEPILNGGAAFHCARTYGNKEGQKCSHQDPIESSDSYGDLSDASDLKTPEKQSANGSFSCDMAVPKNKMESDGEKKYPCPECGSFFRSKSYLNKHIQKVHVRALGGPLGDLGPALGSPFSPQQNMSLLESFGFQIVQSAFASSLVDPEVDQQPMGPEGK
Excerpt: as §1

UniProt A1L020 = target: T5, UniProt A1L020 (Homo sapiens, UniProt A1L020)
T5 construct: Cells were resuspended in cold PBS on ice and sonicated with a probe sonicator to achieve lysis; endogenous in cells
T5 sequence (A1L020 whole entry, change not shown): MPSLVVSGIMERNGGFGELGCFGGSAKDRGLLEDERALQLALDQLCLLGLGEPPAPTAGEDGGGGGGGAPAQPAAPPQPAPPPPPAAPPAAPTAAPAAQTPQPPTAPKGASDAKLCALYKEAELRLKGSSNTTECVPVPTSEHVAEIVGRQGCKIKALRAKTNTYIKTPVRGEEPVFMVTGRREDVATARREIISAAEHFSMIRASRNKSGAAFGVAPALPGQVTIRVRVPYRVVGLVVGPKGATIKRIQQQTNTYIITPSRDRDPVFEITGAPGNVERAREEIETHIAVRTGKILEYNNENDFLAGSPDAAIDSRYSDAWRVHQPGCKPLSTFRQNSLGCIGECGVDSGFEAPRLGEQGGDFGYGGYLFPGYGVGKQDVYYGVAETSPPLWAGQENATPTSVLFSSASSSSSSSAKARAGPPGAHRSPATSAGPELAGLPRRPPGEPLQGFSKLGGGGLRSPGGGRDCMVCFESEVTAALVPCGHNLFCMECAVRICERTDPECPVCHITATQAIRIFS
Excerpt: as §1

UniProt P78317 = target: T6, UniProt P78317 (Homo sapiens, UniProt P78317)
T6 construct: 200 μL of lysate containing 5 mg/ml proteome was treated with 2 μL of 100× compound stock; endogenous in cells
Excerpt: as §1

UniProt Q9H0F6 = target: T7, UniProt Q9H0F6 (Homo sapiens, UniProt Q9H0F6); conditions: read-out: percent_inhibition
T7 construct: 200 μL of lysate containing 5 mg/ml proteome was treated with 2 μL of 100× compound stock; endogenous in cells
T7 sequence (Q9H0F6 whole entry, change not shown): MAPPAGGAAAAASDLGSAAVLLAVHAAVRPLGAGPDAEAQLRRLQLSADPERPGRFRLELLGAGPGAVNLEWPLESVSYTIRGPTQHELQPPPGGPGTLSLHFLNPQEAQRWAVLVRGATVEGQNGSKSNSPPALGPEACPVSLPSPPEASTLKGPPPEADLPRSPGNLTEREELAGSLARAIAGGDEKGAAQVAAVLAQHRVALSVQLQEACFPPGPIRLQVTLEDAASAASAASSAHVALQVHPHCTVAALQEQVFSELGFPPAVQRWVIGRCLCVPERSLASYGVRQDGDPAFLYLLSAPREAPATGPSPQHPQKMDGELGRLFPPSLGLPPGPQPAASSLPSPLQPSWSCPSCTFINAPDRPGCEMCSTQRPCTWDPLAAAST
Excerpt: as §1

UniProt Q9H0F5 = target: T8, UniProt Q9H0F5 (Homo sapiens, UniProt Q9H0F5); conditions: for percent_inhibition / inhibition at 500 µM: 500 uM
T8 construct: 200 μL of lysate containing 5 mg/ml proteome was treated with 2 μL of 100× compound stock; endogenous in cells
T8 sequence (Q9H0F5 whole entry, change not shown): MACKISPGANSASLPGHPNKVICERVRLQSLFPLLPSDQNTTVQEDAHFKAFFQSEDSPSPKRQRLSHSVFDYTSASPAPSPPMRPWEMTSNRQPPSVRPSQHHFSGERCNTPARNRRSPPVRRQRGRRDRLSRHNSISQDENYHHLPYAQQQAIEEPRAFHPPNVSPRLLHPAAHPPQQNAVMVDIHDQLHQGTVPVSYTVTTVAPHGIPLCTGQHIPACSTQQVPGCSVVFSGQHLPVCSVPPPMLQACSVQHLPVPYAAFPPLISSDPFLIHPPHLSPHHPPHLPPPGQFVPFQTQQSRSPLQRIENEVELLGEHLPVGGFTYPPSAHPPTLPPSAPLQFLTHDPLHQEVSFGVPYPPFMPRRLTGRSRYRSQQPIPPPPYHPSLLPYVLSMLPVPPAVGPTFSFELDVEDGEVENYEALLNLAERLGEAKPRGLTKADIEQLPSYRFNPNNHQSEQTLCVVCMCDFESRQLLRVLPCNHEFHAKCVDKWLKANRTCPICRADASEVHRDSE
Excerpt: as §1

UniProt Q13049 = target: T9, UniProt Q13049 (Homo sapiens, UniProt Q13049)
T9 construct: 200 μL of lysate containing 5 mg/ml proteome was treated with 2 μL of 100× compound stock; endogenous in cells
Excerpt: as §1

UniProt Q96EH8 = target: T10, UniProt Q96EH8 (Homo sapiens, UniProt Q96EH8); conditions: for inhibition at 500 µM: read-out: percent inhibition
T10 construct: Cells were resuspended in cold PBS on ice and sonicated with a probe sonicator to achieve lysis; endogenous in cells
T10 sequence (Q96EH8 1-262): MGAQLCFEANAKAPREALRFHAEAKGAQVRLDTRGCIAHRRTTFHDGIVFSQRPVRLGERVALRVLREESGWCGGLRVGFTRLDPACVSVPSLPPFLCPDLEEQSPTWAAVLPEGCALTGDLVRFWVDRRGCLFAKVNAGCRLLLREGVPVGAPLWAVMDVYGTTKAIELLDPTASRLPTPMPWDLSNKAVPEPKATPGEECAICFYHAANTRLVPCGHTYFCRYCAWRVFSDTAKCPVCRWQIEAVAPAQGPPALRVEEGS
Excerpt: as §1

UniProt Q6ZNB6 = target: T11, UniProt Q6ZNB6 (Homo sapiens, UniProt Q6ZNB6); conditions: for percent inhibition: 100 uM
T11 construct: Cells were resuspended in cold PBS on ice and sonicated with a probe sonicator to achieve lysis; endogenous in cells
T11 sequence (Q6ZNB6 1-911): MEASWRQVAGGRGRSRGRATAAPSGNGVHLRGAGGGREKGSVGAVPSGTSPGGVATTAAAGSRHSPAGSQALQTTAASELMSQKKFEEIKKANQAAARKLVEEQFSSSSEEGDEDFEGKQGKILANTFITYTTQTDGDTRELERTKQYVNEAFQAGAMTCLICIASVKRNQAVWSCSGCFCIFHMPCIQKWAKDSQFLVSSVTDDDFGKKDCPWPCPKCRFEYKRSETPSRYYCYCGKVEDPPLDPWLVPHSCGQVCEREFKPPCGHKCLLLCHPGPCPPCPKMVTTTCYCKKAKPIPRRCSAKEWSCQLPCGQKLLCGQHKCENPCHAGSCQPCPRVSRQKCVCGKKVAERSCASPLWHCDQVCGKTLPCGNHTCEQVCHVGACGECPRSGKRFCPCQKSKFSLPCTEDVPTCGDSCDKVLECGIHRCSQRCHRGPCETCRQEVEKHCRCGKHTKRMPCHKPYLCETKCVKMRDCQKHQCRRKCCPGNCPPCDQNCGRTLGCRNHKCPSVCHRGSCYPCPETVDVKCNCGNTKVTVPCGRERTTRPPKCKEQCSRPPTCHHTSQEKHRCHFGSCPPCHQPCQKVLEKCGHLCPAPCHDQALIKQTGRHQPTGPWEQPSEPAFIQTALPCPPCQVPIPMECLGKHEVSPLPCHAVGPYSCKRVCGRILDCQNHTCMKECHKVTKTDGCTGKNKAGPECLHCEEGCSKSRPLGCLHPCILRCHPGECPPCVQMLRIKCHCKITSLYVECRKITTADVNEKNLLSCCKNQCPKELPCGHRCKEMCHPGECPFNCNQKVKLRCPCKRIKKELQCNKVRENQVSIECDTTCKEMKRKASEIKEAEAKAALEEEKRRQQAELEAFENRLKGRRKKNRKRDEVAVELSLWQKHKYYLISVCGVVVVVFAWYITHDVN
Excerpt: as §1

UniProt Q9BR09 = target: T12, UniProt Q9BR09 (Homo sapiens, UniProt Q9BR09); conditions: read-out: percent inhibition
T12 construct: Cells were resuspended in cold PBS on ice and sonicated with a probe sonicator to achieve lysis; endogenous in cells
T12 sequence (Q9BR09 whole entry, change not shown): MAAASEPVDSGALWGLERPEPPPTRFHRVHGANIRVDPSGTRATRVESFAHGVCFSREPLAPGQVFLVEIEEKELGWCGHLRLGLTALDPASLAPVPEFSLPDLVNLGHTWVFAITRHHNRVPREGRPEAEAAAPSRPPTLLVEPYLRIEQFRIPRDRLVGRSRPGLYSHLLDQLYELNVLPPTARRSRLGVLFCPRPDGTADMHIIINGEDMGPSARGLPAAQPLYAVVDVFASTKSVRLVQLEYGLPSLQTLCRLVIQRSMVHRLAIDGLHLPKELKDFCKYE
Excerpt: as §1

UniProt Q496Y0 = target: T13, UniProt Q496Y0 (Homo sapiens, UniProt Q496Y0)
T13 construct: 200 μL of lysate containing 5 mg/ml proteome was treated with 2 μL of 100× compound stock; endogenous in cells
T13 sequence (Q496Y0 whole entry, change not shown): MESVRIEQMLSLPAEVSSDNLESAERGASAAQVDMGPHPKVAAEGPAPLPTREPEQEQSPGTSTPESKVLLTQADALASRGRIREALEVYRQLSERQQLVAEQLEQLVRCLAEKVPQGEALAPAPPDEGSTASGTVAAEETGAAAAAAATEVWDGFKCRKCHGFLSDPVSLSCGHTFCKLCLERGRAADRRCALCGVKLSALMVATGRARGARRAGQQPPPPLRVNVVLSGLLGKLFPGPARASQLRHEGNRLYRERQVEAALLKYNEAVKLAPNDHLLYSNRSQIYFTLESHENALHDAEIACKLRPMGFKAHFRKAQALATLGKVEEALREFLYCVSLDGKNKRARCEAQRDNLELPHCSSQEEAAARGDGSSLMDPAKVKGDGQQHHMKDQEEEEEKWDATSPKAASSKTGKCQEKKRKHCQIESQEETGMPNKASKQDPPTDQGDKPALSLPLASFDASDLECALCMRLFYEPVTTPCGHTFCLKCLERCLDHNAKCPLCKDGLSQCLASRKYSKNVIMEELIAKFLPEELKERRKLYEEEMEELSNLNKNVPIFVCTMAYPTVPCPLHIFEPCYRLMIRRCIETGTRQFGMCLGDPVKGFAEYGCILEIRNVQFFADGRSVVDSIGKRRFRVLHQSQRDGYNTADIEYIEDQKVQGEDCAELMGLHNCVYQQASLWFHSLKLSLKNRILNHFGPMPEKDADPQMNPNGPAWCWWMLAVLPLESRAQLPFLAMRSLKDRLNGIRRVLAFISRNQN
Excerpt: as §1

UniProt Q9C026 = target: T14, UniProt Q9C026 (Homo sapiens, UniProt Q9C026)
T14 construct: 200 μL of lysate containing 5 mg/ml proteome was treated with 2 μL of 100× compound stock; endogenous in cells
T14 sequence (Q9C026 whole entry, change not shown): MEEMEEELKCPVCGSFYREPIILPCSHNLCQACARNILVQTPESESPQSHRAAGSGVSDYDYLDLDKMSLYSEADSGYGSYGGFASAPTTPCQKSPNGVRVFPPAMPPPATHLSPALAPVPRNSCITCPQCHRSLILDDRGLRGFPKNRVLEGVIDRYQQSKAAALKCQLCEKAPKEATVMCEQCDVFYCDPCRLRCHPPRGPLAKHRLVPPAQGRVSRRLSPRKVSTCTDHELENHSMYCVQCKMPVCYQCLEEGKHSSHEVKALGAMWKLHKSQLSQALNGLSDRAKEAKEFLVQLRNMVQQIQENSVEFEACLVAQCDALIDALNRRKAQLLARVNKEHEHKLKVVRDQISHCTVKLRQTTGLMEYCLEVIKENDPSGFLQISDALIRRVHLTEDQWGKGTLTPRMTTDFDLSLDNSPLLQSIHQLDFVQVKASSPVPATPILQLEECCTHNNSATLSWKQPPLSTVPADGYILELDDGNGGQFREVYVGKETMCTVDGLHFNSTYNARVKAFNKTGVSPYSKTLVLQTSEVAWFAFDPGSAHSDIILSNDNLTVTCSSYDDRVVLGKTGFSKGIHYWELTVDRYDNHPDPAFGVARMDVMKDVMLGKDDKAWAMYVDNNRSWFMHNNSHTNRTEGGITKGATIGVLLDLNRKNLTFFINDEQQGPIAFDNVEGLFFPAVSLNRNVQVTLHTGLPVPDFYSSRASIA
Excerpt: as §1

UniProt O00623 = target: T15, UniProt O00623 (Homo sapiens, UniProt O00623)
T15 construct: 200 μL of lysate containing 5 mg/ml proteome was treated with 2 μL of 100× compound stock; endogenous in cells
T15 sequence (O00623 whole entry, change not shown): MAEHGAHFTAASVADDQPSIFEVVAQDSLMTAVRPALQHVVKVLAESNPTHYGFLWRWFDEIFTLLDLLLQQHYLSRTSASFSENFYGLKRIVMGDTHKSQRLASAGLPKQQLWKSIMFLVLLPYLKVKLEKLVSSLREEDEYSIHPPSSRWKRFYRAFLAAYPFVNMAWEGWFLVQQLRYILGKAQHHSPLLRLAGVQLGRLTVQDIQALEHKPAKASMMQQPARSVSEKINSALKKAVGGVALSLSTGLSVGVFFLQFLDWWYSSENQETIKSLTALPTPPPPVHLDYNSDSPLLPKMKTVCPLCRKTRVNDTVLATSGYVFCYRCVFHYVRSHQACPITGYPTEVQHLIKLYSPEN
Excerpt: as §1

[1] = read-out: KB05_100 uM_percent_inhibition

KB05_500 uM_percent_inhibition (UniProt P49792): 75%
percent inhibition (UniProt Q9HCI7): 11%
inhibition at 100 µM (UniProt Q9HCI7; read-out: percent inhibition): 15%
inhibition at 100 µM (UniProt Q9HCE7; read-out: percent_inhibition): 52%
inhibition at 100 µM (UniProt Q9HBE1; [1]): 45%
inhibition at 100 µM (UniProt A1L020; read-out: percent inhibition): 19%
inhibition at 500 µM (UniProt P78317; 500 uM, read-out: percent_inhibition): 24%
inhibition at 100 µM (UniProt Q9H0F6): 25%
percent_inhibition (UniProt Q9H0F5): 10%
inhibition at 500 µM (UniProt Q9H0F5; read-out: percent_inhibition): 16%
inhibition at 100 µM (UniProt Q13049; [1]): 5%
inhibition at 500 µM (UniProt Q96EH8): 44%
percent inhibition (UniProt Q6ZNB6): 36%
inhibition at 100 µM (UniProt Q6ZNB6; read-out: percent inhibition): 21%
inhibition at 500 µM (UniProt Q9BR09): 3%
inhibition at 100 µM (UniProt Q496Y0; 100 uM, read-out: percent inhibition): 26%
percent inhibition (UniProt Q496Y0; 500 uM): 52%
inhibition at 500 µM (UniProt Q496Y0; 500 uM, read-out: percent inhibition): 47%
SMILES: C=CC(=O)N(c1ccccc1)c1ccc(Br)cc1 [KB05]

SMILES: O=C(CCl)Nc1cc(C(F)(F)F)cc(C(F)(F)F)c1 [KBO3]
KB03_500 uM_percent_inhibition (UniProt P49792): 79%
KB03_100 uM_percent_inhibition (UniProt Q9C026; 100 uM): 13%
percent inhibition (UniProt Q9HCI7): 49%
percent_inhibition (UniProt Q9HCE7; 100 uM): 71%
KB03_100 uM_percent_inhibition (UniProt Q9HBE1; 100 uM): 72%
percent inhibition (UniProt A1L020; 100 uM): 52%
percent_inhibition (UniProt P78317; 100 uM): 16%
KB03_100 uM_percent_inhibition (UniProt Q13049; 100 uM): 14%
KB03_500 uM_percent_inhibition (UniProt O00623; 500 uM): 51%
percent inhibition (UniProt Q6ZNB6): 20%
percent inhibition (UniProt Q496Y0; 500 uM): 26%

SMILES: COc1ccc2c(c1)CCCN2C(=O)CCl [KB02]
KB02_500 uM_percent_inhibition (UniProt Q9C026; 500 uM): 69%
inhibition at 500 µM (UniProt Q9C026; 500 uM, read-out: KB02_500 uM_percent_inhibition): 64%
inhibition at 100 µM (UniProt Q9H0F6): 3%
inhibition at 100 µM (UniProt Q9H0F5; 100 uM, read-out: percent_inhibition): 44%
percent_inhibition (UniProt Q9H0F5): 42%
inhibition at 500 µM (UniProt Q9H0F5; read-out: percent_inhibition): 24%
percent inhibition (UniProt Q96EH8; 500 uM): 54%
inhibition at 500 µM (UniProt Q96EH8): 40%
inhibition at 500 µM (UniProt O00623; read-out: KB02_500 uM_percent_inhibition): 61%
inhibition at 500 µM (UniProt Q9BR09): 32%
